Assay results: patent publication US9857359B2, “Methods for determining drug efficacy using cereblon-associated proteins” (CELGENE CORPORATION, priority 2012, dated 2018)

How the values were obtained:
[1] = test system: Aiolos; assay: Overexpressed flag-Aiolos-myc in AU565 cells, western blot; assay type: cell-based
Experimental: In some experiments, cell lines were transfected with an Aiolos overexpression vector using Lipofectamine reagent in a batch method. Cells were seeded in a 12 well plate at 1×10^5 cells in a 3 mL volume per well. Where specified, cells were pretreated with MG132 at 10 uM for 1 hour, or DMSO was added as a control. Following the pretreatment, Compound A was added directly to the cell culture media at the specified concentration.
Cells were harvested and lysed in Pierce #89900 Ripa buffer containing 2× protease inhibitor cocktail from Pierce #78442. The lysate was applied to a QiaShredder to remove DNA. Total protein yield was measured using BioRad DC protein determination kit (Cat#500-0112). Lysates were stored at −80° C. until use. Samples were applied to BioRad Criterion PreCast gels, 10% (Bio-Rad#345-0010) and transferred to Bio-Rad Nitrocellulose/Filter Paper Sandwiches (#162-0233) for western blot analysis.

[2] = test system: Ikaros; assay: Ikaros protein degradation in Jurkat cells; assay type: cell-based
Experimental: Jurkat cells were transfected with wildtype full length Aiolos and different lysine mutated full length Aiolos DNA (Origene, 5 μg DNA/100 μL R buffer/2×10^6 cells/shot) using Neon Transfection System (Invitrogen, Grand Island, N.Y.) with program 1350 voltage+10 width+3 pulse. GFP control DNA (Lonza) was also transfected. Transfected cells were cultured in 24-well plate with 1 mL RPMI+10% FBS at 37° C. for 6 hrs and then treated with DMSO or drug for another 48 hrs, Drug treated cells were collected for measuring Aiolos and Ikaros protein expression by western blot with antibodies against Aiolos (Santa Cruz, Dallas, Tex.) and Ikaros (Millipore, Billerica, Mass.).

[3] = test system: Aiolos; assay: SimpleWestern of normal human CD19+ B cells, Aiolos; assay type: cell-based; details: various concentrations
Experimental: Human B cells were isolated from 3 donors of whole bloods from the New Jersey Blood Center using B cell isolation kits from StemCell Technologies. IKZF family proteins were quantified using the automated capillary-based SimpleWestern System Sally (ProteinSimple). 100 ng of cell lysate protein or serial dilutions of recombinant proteins were mixed in reducing buffer with fluorescent Molecular Weight (MW) standards. After these samples were heated to 95° C. for 5 min, samples were loaded into each capillary tubes and proteins were separated based on MW sizes through stacking and separation matrices for 40 minutes at 250 Volts. Proteins were then immobilized to capillary walls using optimal photoactivated capture chemistry. Following protein immobilization, capillaries were incubated with a blocking reagent for 23 min and target proteins were probed with a specific primary antibody and horseradish peroxidase-conjugated anti-rabbit secondary antibody (ProteinSimple). A mixture of luminol and peroxide (ProteinSimple) was added, the resulting chemiluminescent signal was captured by a CCD camera, and the signal intensities were quantified and analyzed using Compass Software for Sally (ProteinSimple). The Ikaros family proteins in each sample were then calculated based on standard curve of human recombinant proteins. B-Actin was also used as an internal normalization control.

[4] = test system: Ikaros; assay: Ikaros levels in PBMC of 32 cynomolgus monkeys; assay type: in vivo; details: 0.04, 0.15, 0.75 mg/kg orally for 1 month
Experimental: 32 cynomolgus monkeys were randomly divided into 4 groups. Each group had 4 female and 4 male monkeys (n=8). The 3 groups of monkeys were orally administered with Compound B at the dose of 0.04, 0.15, 0.75 mg/kg respectively. The left group was used as the vehicle control (0.5% carboxymethyl cellulose: 0.25% Tween 80 in deionised H2O). Following dosing with drugs for 1 month, whole bloods from each monkey were sampled and PBMCs isolated. Ikaros levels in PBMCs were quantified using the automated capillary-based SimpleWestern System Sally (ProteinSimple) as previously mentioned. Analyses for multiple group comparisons were performed with 1-way analysis of variance, followed by the Dunnett post-test, using GraphPad Prism® version 5.01 (GraphPad Software, Inc., La Jolla, Calif., USA). A value of P<0.05 was considered significant in all analyses.

[5] = test system: DLBCL cell lines; assay: Proliferation of DLBCL cell lines in vitro; assay type: cell-based
[6] = test system: Aiolos; assay: Aiolos in siCRBN transfected primary CD3+ T cells; assay type: cell-based, human; details: siCRBN vs siControl, 6/24 hours
Source text: Primary T cells were isolated from human leukocytes (Blood Center of New Jersey, East Orange, N.J.) by centrifugation through FICOLL® centrifugation medium following the ROSETETTESEP™ protocol (Stem Cell Technologies, Vancouver, Canada).

[7] = test system: Aiolos; assay: Aiolos regulation in cells with low or lost CRBN expression; assay type: cell-based; details: loss of CRBN protein
[8] = test system: Aiolos; assay: Aiolos western blots in MM cells, T cells and B cells; assay type: cell-based, human
Experimental: U266 cells were obtained from ATCC (American Type Culture Collection, Manassas, Va., USA). DF15 cells were obtained from John Shaughnessy (University of Arkansas, Little Rock, Ark., USA). CD19+ B cells were purchased from HemaCare BioResearch Products (Van Nuys, Calif.). Cells were grown in RPMI-1640 medium (Cellgro, Manassas, Va.) containing 10% (V/V) heat-inactivated fetal bovine serum (Gibco, Grand Island, N.Y., USA) supplemented with 2 mM glutamine. […] Primary T cells were isolated from human leukocytes (Blood Center of New Jersey, East Orange, N.J.) by centrifugation through FICOLL® centrifugation medium following the ROSETETTESEP™ protocol (Stem Cell Technologies, Vancouver, Canada). […] Dexamethasone (Sigma, St. Louis, Mo.), melphalan (Sigma, St. Louis, Mo.) and bortezomib (Selleck Chemicals, Houston, Tex.) treated was for 6 hours. The final DMSO concentration is 0.1%. Cells were pre-treated with 10 μM MG-132 (Calbiochem Biochemicals, Billerica, Mass.) for 30 minutes prior to drug addition. Cells were harvested, washed in PBS and cell lysates separated on SDS-PAGE gels (Bio-Rad, Hercules, Calif.). Membranes were immunoblotted with anti-Aiolos (Santa Cruz Biotechnology, Dallas, Tex.), anti-Ikaros (Millipore, Billerica, Mass.) and anti-Actin (Sigma, St. Louis, Mo.; or LI-COR Biosciences, Lincoln, Nebr.) and secondary antibodies (LI-COR Biosciences, Lincoln, Nebr.). The blots were analyzed on ODESSEY® imager (LI-COR Biosciences, Lincoln, Nebr.).
Cell lysates were separated on a 10% TGX SDS-PAGE gel (Bio-Rad) and blotted for Aiolos (Santa Cruz, sc-10198), Ikaros (Millipore, ABD16) and Actin (Sigma, AC15).

## Cc1nc2cccc(N)c2c(=O)n1C1CCC(=O)NC1=O (stereo not drawn) [Compound A, 3-(5-amino-2-methyl-4-oxo-4H-quinazolin-3-yl)-piperidine-2,6-dione]
[1]; MG132 pretreatment
  Inhibition of Aiolos with proteasome inhibitor MG-132: rescued by the addition of proteasome inhibitor MG-132
[1]; after the treatment
  Time at which reduction of overexpressed Aiolos begins to show: about 5 hours
[2]
  Ikaros protein degradation: Ikaros degradation is Aiolos-independent

## O=C1CC[C@H](N2Cc3c(OCc4ccc(CN5CCOCC5)cc4)cccc3C2=O)C(=O)N1 [Compound B, 3-(4-((4-(morpholinomethyl)benzyl)oxy)-1-oxoisoindolin-2-yl)piperidine-2,6-dione]
[3]
  Aiolos expression: inhibited the expression of Ikaros and Aiolos
[4]
  Ikaros levels in PBMC: generally reduces the levels of Ikaros

## Nc1cccc2c1CN(C1CCC(=O)NC1=O)C2=O (stereo not drawn) [lenalidomide]
[5]
  Effect on non-ABC-DLBCL cells: minimal effect on non-ABC-DLBCL cells
[5]; in vitro
  Proliferation of ABC-DLBCL cells: preferentially suppressed proliferation of ABC-DLBCL cells

## Nc1cccc2c1C(=O)N(C1CCC(=O)NC1=O)C2=O (stereo not drawn) [pomalidomide, reference compound]
[6]
  Effect in reducing or inhibiting the expression of Aiolos where CRBN is knocked-down: significantly reduced as compared to the control cells with no CRBN knock-down
[7]
  Down-regulation of Aiolos: loss of CRBN protein prevents down-regulation of Aiolos
[8]; 10 μM lenalidomide, 1 μM pomalidomide, U266, DF15 MM cells, primary CD3+ T cells, primary CD19+ B cells, cycloheximide treated U266
  Aiolos expression: reduced the expression of Aiolos and Ikaros
[8]; MM cells
  Reduction of Aiolos levels compared with other treatment compounds for MM: unique to immunomodulatory compounds provided herein
[8]; six MM cell lines (OPM-2, RPMI-8226, LP-1, U266, H929 and JJN3), various concentrations
  Aiolos expression: significantly inhibited Aiolos and Ikaros expression
